row,melting point [°C],Compound
1,115 to 117,CCOC(=O)c1cnn(-c2cccc(Cl)c2)c1N
2,173 to 176,CCCC(CCC)N(C[C@H]1CC[C@H](CN(C(=O)Nc2ccc(N(C)C)cc2)C(CCC)CCC)CC1)C(=O)Nc1ccc(N(C)C)cc1
3,117 to 118,CSc1nc(C)c(CCO)c(=O)n1C
4,191 to 192,CC(C(N)=NO)N(CCN(C(C)C(N)=NO)C(C)C(N)=NO)C(C)C(N)=NO (centres undefined)
5,86 to 88,CCOC(=O)c1cc(NC(=O)C2=C(CC)OCCS2)ccc1Cl
6,144 to 145,COc1cccc(CC(=O)O)c1OCCCCc1cn(-c2ccc(C(F)(F)F)cn2)nc1C(C)C
7,202 to 204,Cc1nc2ccc(N3CCN[C@H](C)C3)nn2c1-c1ccnc2[nH]ccc12
8,219,Cc1cc2cc(CN3CCCC3)cnc2cc1NC(=O)c1ccc(-c2cc3ccccc3o2)cc1
9,84 to 85,O=C1CCCCC1C(C[N+](=O)[O-])c1ccc(F)cc1 (racemic)
10,112 to 120,CC(C)(C)OC(=O)NC1CCN(Cc2ccccc2)CC1
11,106 to 109,CC(=O)Nc1ccc(OC(=O)COCc2ccccc2)cc1
12,178 to 180,CN1CCN(c2cc3c(cc2F)c(=O)c(C(=O)O)cn3C2COC2)CC1
13,82 to 83.5,Cc1ncoc1C(=O)c1ccoc1
14,113 to 114,COC(=O)N(O)Cc1c(C)n(C(=O)c2ccc(Cl)cc2)c2ccc(OC)cc12
15,252,COc1cc(C2=C(c3cc4ccccc4[nH]3)C(=O)NC2=O)cc(OC)c1OC
16,190,CC(C)Cc1nc2sc3c(NCCN4CCOCC4)ncnc3c2c2c1CCC(C)(C)C2
17,119 to 120,Fc1cc(CC2(Cc3ccnc(F)c3)c3ccccc3-c3nccnc32)ccn1
18,160 to 162,COc1cc2c(cc1Nc1ncc(Cl)c(N[C@@H]3CCCC[C@H]3NS(C)(=O)=O)n1)CCOC(=O)N2C
19,130 to 133,Cc1ccc(S(=O)(=O)NC[C@H](F)Cc2ccccc2)cc1
20,106 to 107,COc1cccc(C(C(N)=O)(c2c(Cl)cncc2Cl)C2CCCC2)c1 (centres undefined)
21,283 to 284,O=c1[nH]c2ncc(-c3ccc(O)cc3)nc2n1CCc1ccccc1
22,131 to 133,Cc1ccc(S(=O)(=O)Oc2ccc3c4c(nn3CCNCCO)-c3cnccc3C(=O)c24)cc1
23,159 to 161,Cc1ccc2c(c1)C(CCCCN1CCN(c3ccc(Cl)cc3)CC1)C(=O)N2 (centres undefined)
24,> 300,COc1ccc(OC)c2c1Cc1c([nH]cnc1=O)N2

row,melting point [°C],Compound
1,153 to 157,CCCOc1ccccc1CCCOc1ccc2c(c1)C=C(C(=O)O)CCS2(=O)=O
2,73 to 75,CCCCCCCc1c(C(C)C)nc(C(C)C)c(CO)c1-c1ccc(F)cc1
3,199 to 201,CC(=O)Nn1cc(C)n(C)c1=O
4,237 to 238,CCc1nnc(N2CCN(c3ccc(N4CC(CNC(C)=O)OC4=O)cc3F)CC2)s1 (centres undefined)
5,130 to 132,CC(C)(C)OC(=O)CN1C(=O)SC(Cc2ccc(N3CCC(NCC(O)c4ccc(O)c(NS(C)(=O)=O)c4)CC3)cc2)C1=O (centres undefined)
6,141 to 143,CCOC(=O)c1cc2c(nc1N)CCN(Cc1ccccc1)C2
7,94,O=C(NCc1ccccc1)C1(CCCc2ccccc2)c2ccccc2-c2ccccc21
8,201 to 202,Cc1c(C(=O)Nc2ccc(N3CCOCC3)c(C#N)c2)cnn1-c1ccc(F)cc1
9,144 to 145,NNC(=O)N(O)Cc1ccc(OCc2csc(-c3ccccc3)n2)cc1
10,208,COc1c(N2CCC(n3ccnn3)C2)c(F)c(N)c2c(=O)c(C(=O)O)cn(C3CC3)c12 (centres undefined)
11,209 to 211,Fc1ccc2c(c1)C1=NCCN1C(Cl)=N2
12,177 to 179,NC(=O)c1sc2ncnc(-c3cccc(NC(=O)Nc4ccncc4)c3)c2c1N
13,69 to 70,COc1ccc2cc(CCC(C)=O)cc(F)c2c1
14,195 to 197,O=[N+]([O-])c1cnn2c(-c3ccccc3C(F)(F)F)ccnc12
15,148 to 149,O=C(CCC(=O)N1CCC(c2ccc(Cl)cc2)CC1)c1ccc2c(c1)CCNCC2
16,137 to 138,CCOCc1nc2c(N)nc3ccccc3c2n1CC1CCN(Cc2ccccc2)O1 (centres undefined)
17,120 to 123,CN(CCc1ccccn1)C(=O)CCSc1cc(Cl)c(O)c(Cl)c1
18,209 to 210,CN1CCN(c2ncc3c(=O)c(C(=O)O)cn(C4CC4)c3n2)CC1
19,96 to 98,CCCCc1oc2ccccc2c1C(OC)c1cc(I)c(OCCN(CC)CC)c(I)c1 (centres undefined)
20,170,Cc1ccc(-c2cc(OCC(=O)N3CCOCC3)c3c(Cl)cccc3n2)cc1
21,145 to 146,CCCc1nn(-c2ccc(C(F)(F)F)cn2)cc1CCCOc1c(C)cnn1CC(=O)O
22,> 300,O=C(c1ccccc1)c1c(O)c2c(C(=O)O)cccc2[nH]c1=O
23,236 to 237,CS(=O)(=O)NCCn1c(=O)c(-c2cccs2)nc2ccccc21
24,189 to 190,N#Cc1ccc(C(=O)NC2CCCNC(=O)C2)cc1 (centres undefined)

row,melting point [°C],Compound
1,93 to 95,CCc1cc(OCc2ccc(-c3ccccc3-c3nnn(C(c4ccccc4)(c4ccccc4)c4ccccc4)n3)cc2)c2c(n1)CCCN2C(=O)C(F)(F)F
2,205 to 207,Cc1c(C)c2c(c(C)c1NC(=O)CC(C)(C)C)C(O)(c1ccccn1)C(C)(C)O2 (centres undefined)
3,62 to 70,Cc1cc(SC2=C(O)CC(CCc3ccoc3)(C(C)C)OC2=O)c(C(C)(C)C)cc1CO (centres undefined)
4,234 to 236,CCn1c(=O)oc2cc(N3C[C@H](C(N)=O)OC3=O)ccc21
5,124 to 125,CCC(=CC(CNC(C)=O)=NO)C(C)[N+](=O)[O-] (centres undefined)
6,212 to 214,CCc1c(Cc2c[nH]c3ccccc23)[nH]c(=O)c(CC(C)C)[n+]1[O-]
7,261 to 264,CCCCn1nnnc1-c1c(O)ccc(-c2cccc(C(=O)O)c2)c1O
8,118 to 120,CC(=O)NC1CCNC(c2ncccc2Cl)C1 (centres undefined)
9,196 to 200,CSc1nc(-c2nn[nH]n2)c(I)c(C(F)(F)F)n1
10,75 to 76,CC(C)(CO)CCS(N)(=O)=O
11,102 to 105,CC(C)N(C)C(=O)N1N=C2c3cc(F)ccc3OC[C@@H]2[C@@H]1c1ccccc1 (racemic)
12,217 to 218,CC1(C(=O)N2CCN(S(=O)(=O)c3ccc(Br)cc3)CC2)CCN(c2ccncn2)CC1
13,167 to 168,CCOC(=O)c1ncn(-c2nn(C)cc2Cl)c1S(N)(=O)=O
14,110,O=C1C(CCC(O)c2ccc(F)cc2)C(c2ccc(-c3ccc(O)cc3)cc2)N1c1ccc(F)cc1 (centres undefined)
15,209 to 212,Cc1cc(-c2ccc(Cl)cc2)nn2c(C)nnc12
16,142 to 143,O=C(O[C@@H]1[C@@H](Br)C[C@]2(O)C[C@H]1OC2=O)c1ccccc1
17,168 to 172,CS(=O)(=O)c1ccc(C[C@@H](NC(=O)OCc2ccccc2)[C@H](O)C(=O)O)cc1
18,163 to 166,O=C1c2cc(O)ccc2OCC1Cc1cccnc1 (centres undefined)
19,224 to 226,NC(=O)C1(N2C(=O)c3ccccc3C2=O)CCCCC1
20,142 to 144,CCOC(=O)C1=C(C)NC(C)=C(C(=O)OCC)C1c1cccc(Cl)c1
21,151 to 152,NC(=O)CCNC(=O)C1CCCN1C(=O)OCc1ccccc1 (centres undefined)
22,171 to 172,COCCOc1cc2ncnc(NC3=CC(=O)C(Oc4ccc(C)cc4)=CC3=O)c2cc1OC
23,68 to 69.5,CC(C)(C)C(=O)COc1ccc(Cl)cn1
24,137,CCOC(=O)C1=C(N=CN(C)C)NC(C)=C(C(=O)OC)C1c1ccccc1Cl (centres undefined)

row,melting point [°C],Compound
1,192 to 194,CC(Nc1c(-c2ccc(C#N)cc2)c(=O)c1=O)C(C)(C)C (centres undefined)
2,158,CC(Oc1ccc(Cl)cc1[N+](=O)[O-])c1ccnc2ncnn12 (centres undefined)
3,105,Cc1ccc(S(=O)(=O)Oc2cc(C(C)(C)C)c(SC3=C(O)CC(CCc4ccc(O)cc4)(C4CCCCC4)OC3=O)cc2C)cc1 (centres undefined)
4,166 to 168,Cn1cncc1Cn1nnnc1-c1cccc(Cl)c1Cl
5,45 to 56,CCOc1ccc(C(=O)N(CC)CC)c(OCC)c1
6,194 to 196,O=C1c2ccccc2C(=O)c2c(O)c3c(c(O)c21)CCCC3
7,160 to 162,CN(C)C=C(C#N)C(=O)c1ccc(C(C)(CN)C(=O)OC(C)(C)C)cc1 (centres undefined)
8,95,Oc1cc2c(cc1Cl)OCO2
9,129 to 134,COc1ccc(Nc2ccncc2)cc1
10,< 24,CCOCCOCCOCCOc1cc(OCCCCCCCCCCCCOc2ccccc2)cc(N(CC(=O)OC)CC(=O)OC)c1
11,158 to 160,CCC12CCC3c4ccc(OC)cc4CCC3C1C=CC2=O (centres undefined)
12,200 to 203,CNC(=S)n1nc(Sc2ccc(C#N)cc2)nc1N
13,206 to 210,COc1ccc2c(c1F)C(=O)N(Nc1ccncc1)C2=O
14,251 to 253,CCCc1nn(C)c(C(N)=O)c1NC(=O)c1cc([N+](=O)[O-])cnc1OCC
15,224 to 227,CN1CCN(C(=O)c2cnn(C)c2C(=O)Nc2ccn3nc(-c4cccc(F)c4)nc3c2)CC1
16,84 to 85,CCOC(=O)C=C(C)C=CC=C(C)C=Cc1c(C)cc(C)c(Cl)c1C
17,62.5 to 63.5,CC(C)OCCCNc1c([N+](=O)[O-])cnc2cccnc12
18,206 to 208,COc1ccc(Cl)cc1C1(F)C(=O)Nc2ccc(Br)cc21 (centres undefined)
19,163 to 165,N#Cc1cnc2cc(F)ccc2c1Cl
20,213 to 216,CCCc1cc(N2CCC(NCC(O)c3cnc4ccccc4c3)CC2)nc2sc(C(N)=O)c(N)c12 (centres undefined)
21,85 to 87,CCCc1cc2ccc(CC(=O)OC)cc2n1C(C)=O
22,153,CNC(=O)c1cccc(F)c1Nc1nc(Nc2ccc3c(c2)C(C)(C)CCC(=O)N3)ncc1Cl
23,181 to 185,Cc1cccc(N2CC(C)C(N)=N2)n1 (centres undefined)

row,Compound,melting point [°C]
1,CC(=O)c1ccc2c(c1)C(c1ccccc1F)=NC(C)(C)C(=O)N2C,68
2,Cc1cc(O)c2c(c1)C(C)(C)CC2(C)C,66
3,CN1Cc2c(Cl)ncn2-c2ccccc2C1=O,193 to 194
4,COC(=O)Nc1nc(C)c(-c2nc3ccccc3c(=O)n2-c2ccc(Cl)cc2)s1,> 275

# Source: a melting point compilation (Tetko et al.; mined from patent text by program, amines drawn as free bases though some values may be those of a salt)
